Reference: US20070259428A1, “Use of Cloud Point System in Biotransformation” (Shanghai Health Creation Center for Biopharmaceutical R&D …, priority 2003, published 2007)

Tests used:
[1] = TLC analysis of distribution of substrate and product in CPS; type: physicochemical; conditions: FIG. 4
Experimental: TLC analysis was performed to determine the distribution of substrate and products in CPS, using Silica gel 60 F254 (Merck) high-performance thin layer chromatography plates which is developed in Chloroform:ether (1:3) followed by soaking in phosphornolybdic acid solution and drying by heat. Substrate and products were separated, with their Rf values of cholesterol, a-AD and ADD being 0.62, 0.47, and 0.42, respectively.
By TLC analysis, the partition of substrate and product in CPS is viewed in FIG. 4. […] Partition of cells between the two phases is determined with hemocytometry. Its partition coefficient between the coacervate phase and the dilute phase is roughly 10, indicating the surface of Mycobacterium sp. is rather hydrophobic. This is in compliance with the report that Mycobacterium is a hydrophobic microbe.

[2] = cited from earlier work
[3] = system: Mycobacterium sp. NRRL B 3683; test: Screening of nonionic surfactant: biocompatibility or potential toxicity to the microorganism, by final ADD concentration in surfactant-amended transformation medium; type: cell-based; conditions: high concentration of surfactant (2.0 g/100 ml), 28° C., 7 days
Experimental: Microbial strain, Mycobacterium sp. NRRL B 3683, is preserved in Shanghai Health Creation Center for Biopharmaceuticals R&D. It is able to remove the side chain of cholesterol, giving out ADD and 4-AD as final products, at a ratio of ca. 10:1.
Transformation medium (100 ml): (NH4)SO4 1.0 g, Na2HPO4 0.45 g, KH2PO4 0.34 g, MgSO4.7H2O 0.2 g, cholesterol 0.5 g, nonionic surfactant 2.0 g
The seed culture was grown aerobically at 28° C. at 220 r/min for 3 days with 20 ml of medium in a 250 ml Erlenmeyer flask. The seed culture was then transferred by 10% into 22 ml of transformation medium in a 250 ml Erlenmeyer flask, which was then shaken at 28° C. at 220 r/min for 7 days. A portion of the well-mixed transformation culture broth was withdrawn for analysis.
1 ml of sample was withdrawn from culture broth and extracted with 4 ml of methanol for 2 hrs, followed by centrifugation. 0.8 ml of supernatant was taken for HPLC analysis. Hypesil C18 column using methanol:water (4:1) as mobile phase, flow rate of 0.7 ml/min, and detection wavelength at 254 nm were applied.
For selecting appropriate medium of microbial transformation, biocompatibility or potential toxicity of surfactant to microorganism is critical.

[4] = cloud point; cited from earlier work
[5] = footnote a: mg/L; cited from earlier work

Compound: C[C@]12C=CC(=O)C=C1CC[C@@H]1[C@@H]2CC[C@]2(C)C(=O)CC[C@@H]12 [ADD]
- partition in CPS (dilute phase vs coacervate phase) [1]: based in the coacervate phase

Compound: CC(C)CCC[C@@H](C)[C@H]1CC[C@H]2[C@@H]3CC=C4C[C@@H](O)CC[C@]4(C)[C@H]3CC[C@]12C [cholesterol]
- solubility in water [2]: below 1 μM

Compound: Triton X-100
- biocompatibility with the microorganism [3]: incompatible with the microorganism
- CP [4]: 64 °C

Compound: Tween 40
- CMC [5]: 29^a mg/L

Compound: Tween 60
- CMC [5]: 27^a mg/L
